Measurements taken from US20230192683A1, “FUSED RING COMPOUNDS, PREPARATION METHOD THEREFOR, PHARMACEUTICAL COMPOSITIONS AND USE THEREOF” (priority 2020, published 2023).
Marks after values point to notes of the source that are not given here.

Experiments:
[1] = pharmacokinetic evaluation in rats after oral and intravenous administration; format: in vivo; conditions: Sprague-Dawley, rat, plasma, male SD rats, oral 10.0 mg/kg, intravenous 1.0 mg/kg, route and unit inferred
Protocol: Using rats as test animals, an LC/MS/MS method was used to determine the drug concentrations in plasma at different times after oral and intravenous administration of Compound 1a and Compound 14 in the rats. The pharmacokinetic behavior of the compounds of the present invention in rats was studied, and pharmacokinetic characteristics thereof were evaluated.
For each compound, 6 healthy adult SD (Sprague-Dawley) rats, male, were divided into oral and intravenous administration groups, 3 rats in each group, purchased from Shanghai SIPPR/BK Laboratory Animal Co., Ltd., animal production license number: SCXK (Shanghai) 2008-0016.
A specific amount of the drug was weighed and dissolved in 5% dimethylacetamide (DMA) + 5% polyethylene glycol-15 hydroxystearate (solutol) + 90% saline solution to prepare a 0.2 mg/mL solution.
The SD rats were fasted overnight and were administered orally and intravenously. The oral dose was 10.0 mg/kg, and the intravenous dose was 1.0 mg/kg.
Compound 1a and Compound 14 were administered orally and intravenously to the rats. At 0.083, 0.25, 0.5, 1, 2, 4, 8, and 24 hours after administration, 0.2 mL of blood was collected from the submandibular vein or other suitable blood vessels, placed in K2-EDTA tubes, and then stored on ice. Within one hour, the plasma was separated by centrifugation at 6,800 g for 6 minutes at 2-8° C., and stored at -80° C. for LC/MS/MS analysis. The rats were fed 4 hours after administration.

rat CFA pain model [2] = assay: single-dose pharmacodynamic study in rat CFA pain model (Von Frey PWT); format: in vivo; conditions: for Mechanical allodynia test (PWT (g), mean) Baseline: 10 mg/kg I.P. group, baseline 24 h after CFA, before administration; for Mechanical allodynia test (PWT (g), mean) 1 hour: 1 hour after single administration; for Mechanical allodynia test (PWT (g), mean) 3 hours: 3 hours after single administration; for inhibition of CFA-induced mechanical allodynia (in words): single administration, FIG. 1
Protocol: Each male SD rat (7-8 weeks old) was injected with 50 microliters of CFA in the center of the left hind paw. A PWT basal value test was conducted 24 hours after modeling, and the drugs were administered after randomization.
There were 8 animals in each group, and the animals were weighed and administered according to Table 4.
For all groups of animals, paw withdrawal thresholds (PWTs) of the animals were tested using Von Frey after 1 h and 3 h of single administration.

rat CFA pain model [3] = assay: multi-dose oral pharmacodynamic study in rat CFA pain model (Von Frey PWT); format: in vivo
Protocol: The efficacy of Compound 1a and Compound 14 in the rat CFA pain model was evaluated using a mechanical allodynia method.
SD rats, 72 males, divided into 9 groups, were purchased from Beijing Vital River Laboratory Animal Technology Co., Ltd.
The experimental animals were adaptively reared for 3 to 7 days, and 8 of them were selected as a normal control group, and the other animals were injected with 50 µL of CFA in the center of the left hind paw for modeling. 24 hours after injection, the animals were tested for paw withdrawal threshold (PWT) basal values, and were divided into groups according to the basal values, which were solvent control group, indomethacin group, Compound 1a, 10 mpk group, Compound 1a, 30 mpk group, Compound 1a, 100 mpk group, Compound 14, 3 mpk group, Compound 14, 10 mpk group, and Compound 14, 30 mpk group, with 8 animals in each group. Subsequently, the animals were weighed and administered orally according to Table 6. All the animals were tested for paw withdrawal thresholds (PWT) using Von Frey 1, 2, and 4 hours after administration to further evaluate the efficacy of the compounds of the present invention.

human SSTR1 = target: T1, human SSTR1 (Homo sapiens, UniProt P30872); assay: biochemical; conditions: 25° C., 2 hours, Cheng-Prusoff; read-out: Binding Ki (nM) SSTR1
T1 construct: expressed in transfected cells; host or cells: CHO-K1 (membrane homogenates)
Protocol: (§1) Cell membranes were then filtered and washed, and protein-bound radioactivity was measured with a suitable instrument. The Ki values of corresponding targets were calculated using a Cheng-Prusoff formula.

human SSTR2 = target: T2, human SSTR2 (Homo sapiens, UniProt P30874); assay: biochemical; conditions: 25° C., 2 hours, Cheng-Prusoff; read-out: Binding Ki (nM) SSTR2
T2 construct: expressed in transfected cells; host or cells: CHO-K1 (membrane homogenates)
Protocol: as §1

human SSTR3 = target: T3, human SSTR3 (Homo sapiens, UniProt P32745); assay: biochemical; conditions: 25° C., 2 hours, Cheng-Prusoff; read-out: Binding Ki (nM) SSTR3
T3 construct: expressed in transfected cells; host or cells: CHO-K1 (membrane homogenates)
Protocol: as §1

human SSTR5 = target: T4, human SSTR5 (Homo sapiens, UniProt P35346); assay: biochemical; conditions: 25° C., 2 hours, Cheng-Prusoff; read-out: Binding Ki (nM) SSTR5
T4 construct: expressed in transfected cells; host or cells: CHO-K1 (membrane homogenates)
Protocol: as §1

human SSTR4 = target: T5, human SSTR4 (Homo sapiens, UniProt P31391); assay: radioligand binding assay, [125I]Somatostatin-14, CHO-K1 membranes
T5 construct: expressed in transfected cells
Protocol: as §1

T5 sequence (P31391 whole entry): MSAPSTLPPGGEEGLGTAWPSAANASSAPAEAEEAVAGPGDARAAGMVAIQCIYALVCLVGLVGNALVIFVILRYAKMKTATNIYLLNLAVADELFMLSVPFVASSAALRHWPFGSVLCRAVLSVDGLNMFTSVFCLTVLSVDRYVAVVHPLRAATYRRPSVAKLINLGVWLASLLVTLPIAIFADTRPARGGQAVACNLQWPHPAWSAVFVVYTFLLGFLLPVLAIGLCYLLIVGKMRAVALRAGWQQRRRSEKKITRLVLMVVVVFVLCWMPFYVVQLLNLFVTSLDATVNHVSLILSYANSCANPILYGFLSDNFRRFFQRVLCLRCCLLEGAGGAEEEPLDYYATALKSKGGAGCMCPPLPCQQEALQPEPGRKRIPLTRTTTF
T1 sequence (P30872 whole entry): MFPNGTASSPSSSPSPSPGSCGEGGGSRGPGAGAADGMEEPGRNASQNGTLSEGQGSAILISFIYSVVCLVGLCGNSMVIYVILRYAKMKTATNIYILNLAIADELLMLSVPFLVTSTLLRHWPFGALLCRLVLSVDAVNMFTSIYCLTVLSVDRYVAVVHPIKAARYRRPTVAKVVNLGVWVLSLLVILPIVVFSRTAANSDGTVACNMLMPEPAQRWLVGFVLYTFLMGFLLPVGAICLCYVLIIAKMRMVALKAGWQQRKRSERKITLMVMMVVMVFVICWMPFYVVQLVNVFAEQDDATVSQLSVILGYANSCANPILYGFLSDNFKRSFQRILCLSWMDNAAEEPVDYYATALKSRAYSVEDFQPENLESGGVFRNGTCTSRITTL
T4 sequence (P35346 whole entry): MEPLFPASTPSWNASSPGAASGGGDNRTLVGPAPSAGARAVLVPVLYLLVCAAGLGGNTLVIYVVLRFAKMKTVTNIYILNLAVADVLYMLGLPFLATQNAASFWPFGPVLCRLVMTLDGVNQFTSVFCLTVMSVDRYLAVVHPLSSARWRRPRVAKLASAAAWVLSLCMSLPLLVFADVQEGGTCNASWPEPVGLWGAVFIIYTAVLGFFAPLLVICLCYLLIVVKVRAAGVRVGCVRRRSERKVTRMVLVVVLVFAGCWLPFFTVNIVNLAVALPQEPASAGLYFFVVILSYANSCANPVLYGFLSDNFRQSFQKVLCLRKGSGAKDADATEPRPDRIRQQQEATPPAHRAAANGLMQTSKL
T2 sequence (P30874 whole entry): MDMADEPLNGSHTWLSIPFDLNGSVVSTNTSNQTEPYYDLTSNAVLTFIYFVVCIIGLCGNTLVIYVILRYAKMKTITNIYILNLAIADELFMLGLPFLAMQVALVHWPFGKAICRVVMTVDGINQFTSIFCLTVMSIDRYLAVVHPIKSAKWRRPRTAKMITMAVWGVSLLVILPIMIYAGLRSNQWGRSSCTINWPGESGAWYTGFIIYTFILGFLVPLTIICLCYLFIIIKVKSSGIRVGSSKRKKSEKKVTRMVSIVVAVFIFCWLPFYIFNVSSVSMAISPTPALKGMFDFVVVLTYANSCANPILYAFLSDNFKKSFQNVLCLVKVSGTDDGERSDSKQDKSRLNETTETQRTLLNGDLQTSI
T3 sequence (P32745 whole entry): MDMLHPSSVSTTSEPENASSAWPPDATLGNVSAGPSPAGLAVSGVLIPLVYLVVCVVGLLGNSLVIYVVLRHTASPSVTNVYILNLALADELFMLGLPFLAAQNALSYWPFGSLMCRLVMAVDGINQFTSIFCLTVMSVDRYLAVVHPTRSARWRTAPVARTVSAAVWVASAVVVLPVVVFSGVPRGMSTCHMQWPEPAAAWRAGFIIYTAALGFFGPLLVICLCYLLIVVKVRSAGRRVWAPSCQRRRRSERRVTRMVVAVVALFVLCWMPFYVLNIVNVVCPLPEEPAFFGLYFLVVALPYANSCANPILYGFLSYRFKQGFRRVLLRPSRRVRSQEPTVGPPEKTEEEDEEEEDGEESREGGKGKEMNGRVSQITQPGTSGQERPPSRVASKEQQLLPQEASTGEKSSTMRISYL

## CSc1cccn2c(C(C)(C)NC(=O)[C@H]3[C@@H]4CNC[C@@H]43)ncc12 [Compound 1a, (1R,5S,6R)-N-(2-(8-(Methylthio)Imidazo[1,5-a]Pyridin-3-yl)Prop-2-yl)-3-Azabicyclo[3.1.0]Hexane-6-Carboxamide]
[1]
  half-life: 2.58 ± 1.07 h
[1]; read-out: Apparent volume of distribution
  Vd: 5.12 ± 1.14 L/kg
[1]; read-out: Clearance rate
  clearance: 53 ± 1.76 mL/min/kg
Rat CFA pain model [2]
  Mechanical allodynia test (PWT (g), mean) Baseline: 3.554 g
Rat CFA pain model [2]; 10 mg/kg I.P.
  Mechanical allodynia test (PWT (g), mean) 1 hour: 6.484 * # g
  Mechanical allodynia test (PWT (g), mean) 3 hours: 8.371 **** g
  inhibition of CFA-induced mechanical allodynia (in words): inhibited CFA-induced mechanical allodynia
Rat CFA pain model [2]; 10 mg/kg I.P., 1 hour and 3 hours after administration
  efficacy compared with Control Compound A (in words): significantly better than that of Control Compound A
Rat CFA pain model [3]; 10 mg/kg oral group
  Paw withdrawal threshold (PWT(g)) (average) 0 hours: 3.016 g
Rat CFA pain model [3]; 10 mg/kg oral
  Paw withdrawal threshold (PWT(g)) (average) 1 hour: 4.020 g
  Paw withdrawal threshold (PWT(g)) (average) 2 hours: 6.722 * g
  Paw withdrawal threshold (PWT(g)) (average) 4 hours: 8.438 **** g
Rat CFA pain model [3]; 30 mg/kg oral group
  Paw withdrawal threshold (PWT(g)) (average) 0 hours: 3.118 g
Rat CFA pain model [3]; 30 mg/kg oral
  Paw withdrawal threshold (PWT(g)) (average) 1 hour: 4.173 g
  Paw withdrawal threshold (PWT(g)) (average) 2 hours: 7.637 ** g
  Paw withdrawal threshold (PWT(g)) (average) 4 hours: 10.958 **** ### g
Rat CFA pain model [3]; 100 mg/kg oral group
  Paw withdrawal threshold (PWT(g)) (average) 0 hours: 3.118 g
Rat CFA pain model [3]; 100 mg/kg oral
  Paw withdrawal threshold (PWT(g)) (average) 1 hour: 3.855 g
  Paw withdrawal threshold (PWT(g)) (average) 2 hours: 9.549 **** g
  Paw withdrawal threshold (PWT(g)) (average) 4 hours: 9.687 **** # g
Rat CFA pain model [3]; 30 mpk and 100 mpk groups, oral, 4 hours after administration
  efficacy compared with positive control compound indomethacin (in words): significantly better than that of the positive control compound indomethacin
Rat CFA pain model [3]; oral 10, 30, 100 mg/kg, 2 and 4 hours after administration
  inhibition of CFA-induced mechanical hyperalgesia (in words): dose-dependently inhibit
Rat CFA pain model [3]; oral, inhibition of CFA-induced mechanical hyperalgesia
  onset dose: 10 mg/kg
Human SSTR1
  Ki: > 8280 nM
Human SSTR2
  Ki: > 5310 nM
Human SSTR3
  Ki: > 3420 nM
Human SSTR5
  Ki: > 5650 nM
Human SSTR4
  Ki: 0.00552 µM
Human SSTR4; binding selectivity to SSTRs 1-5
  SSTR4 selectivity (in words): the best
Human SSTR4; ratio of binding Ki values, selectivity
  SSTR4 /SSTR 1: > 1500

## Cc1cccc2c(C(C)(C)NC(=O)[C@H]3[C@@H]4CNC[C@@H]43)nn(C)c12 [Control Compound A, reference compound]
Rat CFA pain model [2]
  Mechanical allodynia test (PWT (g), mean) Baseline: 3.765 g
Rat CFA pain model [2]; 10 mg/kg I.P.
  Mechanical allodynia test (PWT (g), mean) 1 hour: 3.813 g
  Mechanical allodynia test (PWT (g), mean) 3 hours: 6.237 * g
  inhibition of CFA-induced mechanical allodynia (in words): inhibited CFA-induced mechanical allodynia
Human SSTR1
  Ki: 1800 nM
Human SSTR2
  Ki: > 5310 nM
Human SSTR3
  Ki: > 3420 nM
Human SSTR5
  Ki: > 5650 nM
